Measurements from patent US20050074879A1, “Antisense oligonucleotide modulation of STAT3 expression” (priority 2000, published 2005).
Oligonucleotides are written 5' to 3', each unit as a sugar letter and its base; * is a phosphorothioate linkage, no mark a phosphodiester; rarer units and linkages stand in square brackets, end groups in braces. Plain capitals give the bases only. e = 2'-O-(2-methoxyethyl) (MOE); [5mC] = 5-methylcytosine; d = 2'-deoxy (DNA)

Tests used:
Format in all cases: cell-based
Human STAT3 mRNA [1] = test: Human STAT3 mRNA dose response in T-24 cells, real-time PCR with PPS 199 (Table 18); conditions: 16 hours, − decrease, + increase relative to untreated control
Excerpt: The transitional cell bladder carcinoma cell line T-24 was obtained from the American Type Culture Collection (ATCC) (Manassas, Va.). T-24 cells were routinely cultured in complete McCoy's 5A basal media (Gibco/Life Technologies, Gaithersburg, Md.) supplemented with 10% fetal calf serum (Gibco/Life Technologies, Gaithersburg, Md.), penicillin 100 units per mL, and streptomycin 100 micrograms per mL (Gibco/Life Technologies, Gaithersburg, Md.). Cells were routinely passaged by trypsinization and dilution when they reached 90% confluence. Cells were seeded into 96-well plates (Falcon-Primaria #3872) at a density of 7000 cells/well for use in RT-PCR analysis.
Control oligonucleotides used were ISIS 129695 ([…], SEQ ID NO: 391), ISIS 129694 ([…] SEQ ID NO: 392), ISIS 129690 ([…] SEQ ID NO: 393), ISIS 129686 ([…] SEQ ID NO: 394), ISIS 116847 ([…], SEQ ID NO: 395) and ISIS 113529 ([…] SEQ ID NO: 396). These are universal scrambled control oligonucleotides.
(§1) T-24 cells were treated with 18.75, 37.5, 75, or 150 nM of oligonucleotide mixed with 3 ug/mL LIPOFECTIN per 100 nM oligonucleotide as described by other examples herein. Untreated cells served as controls. Following 16 hours of treatment, RNA was prepared from cells for subsequent real-time PCR analysis.
Human STAT3 mRNA expression levels were quantitated by real-time PCR using primer probe set PPS 199 and gene target quantities were normalized using Ribogreen as described in other examples herein. A “−” or “+” designation indicates a decrease or increase of STAT 3 mRNA expression, respectively, relative to untreated control cells.

Human STAT3 mRNA [2] = test: Human STAT3 mRNA dose response in T-24 cells, real-time PCR with PPS 2033 (Table 19); conditions: 16 hours, − decrease, + increase relative to untreated control
Method: The dose-response was repeated in T-24 cells and gene target quantities were measured using a different primer-probe set, called PPS 2033 herein. PPS 2033 comprises probes and primers to human STAT3 were designed to hybridize to a human STAT3 sequence, using published sequence information (incorporated herein as SEQ ID NO: XXX). For PPS 2033 the PCR primers were: forward primer: GAGGCCCGCCCAACA (SEQ ID NO: 397) reverse primer: […] (SEQ ID NO: 398) and the PCR probe was: FAM-CTGCCTAGATCGGC-TAMRA (SEQ ID NO: 399) where FAM is the fluorescent reporter dye and TAMRA is the quencher dye. Gene target quantities obtained by real time RT-PCR are normalized by quantifying total RNA using RiboGreen™ (Molecular Probes, Inc. Eugene, Oreg.). Control oligonucleotides used were ISIS 129695 (SEQ ID NO: 391), ISIS 129694 (SEQ ID NO: 392), ISIS 129690 (SEQ ID NO: 393), ISIS 129686 (SEQ ID NO: 394), ISIS 116847 (SEQ ID NO: 395) and ISIS 113529 (SEQ ID NO: 396).
as §1
Human STAT3 mRNA expression levels were quantitated by real-time PCR using primer probe set PPS 2033 and gene target quantities were normalized using Ribogreen as described in other examples herein. A “−” or “+” designation indicates a decrease or increase of STAT 3 mRNA expression, respectively, relative to untreated control cells.

Human STAT3 mRNA [3] = test: Inhibition of human STAT3 mRNA levels in A549 cells, 75 nM, real-time PCR (Table 13); conditions: 75 nM oligonucleotide with LIPOFECTIN, real-time PCR PPS 199, percent inhibition relative to untreated control cells, average of 2 experiments
Method in brief: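 A549 cells at 65–75% confluency were transfected in duplicate with 75 nM oligonucleotide plus […] Lipofectin for 4–7 h at 37° C and harvested 16–24 h later. STAT3 mRNA was quantified by real-time RT-PCR with primer-probe set PPS 199 and normalized to RiboGreen total RNA. Inhibition is relative to untreated controls.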

Substance | Percent change of STAT3 expression using PPS 199 (Human STAT3 mRNA [1]; 18.75 nM oligonucleotide) | Percent change of STAT3 expression using PPS 199 (Human STAT3 mRNA [1]; 37.5 nM oligonucleotide) | Percent change of STAT3 expression using PPS 199 (Human STAT3 mRNA [1]; 75 nM oligonucleotide) | Percent change of STAT3 expression using PPS 199 (Human STAT3 mRNA [1]; 150 nM oligonucleotide) | Percent change of STAT3 expression using PPS 2033 (Human STAT3 mRNA [2]; 18.75 nM oligonucleotide) | Percent change of STAT3 expression using PPS 2033 (Human STAT3 mRNA [2]; 37.5 nM oligonucleotide) | Percent change of STAT3 expression using PPS 2033 (Human STAT3 mRNA [2]; 75 nM oligonucleotide) | Percent change of STAT3 expression using PPS 2033 (Human STAT3 mRNA [2]; 150 nM oligonucleotide) | % Inhib (inhibition of human STAT 3 mRNA levels) (Human STAT3 mRNA [3]) [%]
129695 (antisense TTCTACCTCGCGCGATTTAC; all phosphorothioate, sugars by position and methylation of C not given here; 2'-MOE wings with deoxy gap) [compound 129695] | +5% | +2% | +8% | 0% | −4% | +2% | +8% | +3% | 
337293 (antisense e[5mC]*eA*eG*e[5mC]*e[5mC]*dA*dG*d[5mC]*dT*d[5mC]*d[5mC]*dT*d[5mC]*dG*dT*e[5mC]*e[5mC]*eG*eT*eG) [compound 337293] | −26% | −49% | −66% | −79% | −26% | −49% | −67% | −79% | 92
337284 (antisense e[5mC]*eT*e[5mC]*e[5mC]*eT*dT*dG*dA*d[5mC]*dT*d[5mC]*dT*dT*dG*dA*eG*eG*eG*eT*eT) [compound 337284] | −49% | −64% | −69% | −72% | −49% | −62% | −66% | −68% | 91
106747 (GCCCATGATGATTTCAGCAA; all C 5-methyl, all phosphorothioate, sugars by position not given here; further chemistry not fully specified) [compound 106747] | −37% | −48% | −71% | −84% | −32% | −48% | −62% | −76% | 
337247 (antisense eT*eT*eT*eT*eG*d[5mC]*dA*dT*dG*dA*dT*dG*dT*dA*dA*e[5mC]*e[5mC]*eA*e[5mC]*eT) [compound 337247] | −23% | −43% | −62% | −75% | +17% | −21% | −53% | −69% | 87
337384 (antisense eA*eT*eA*e[5mC]*eA*dG*dA*dA*dA*dG*dG*d[5mC]*dT*dA*dT*eG*e[5mC]*eT*eG*eA) [compound 337384] | −40% | −55% | −71% | −80% | −41% | −59% | −69% | −80% | 89
337344 (antisense eA*eT*e[5mC]*e[5mC]*eA*dT*dG*dA*dT*d[5mC]*dT*dT*dA*dT*dA*eG*e[5mC]*e[5mC]*e[5mC]*eA) [compound 337344] | −27% | −47% | −63% | −77% | −17% | −37% | −60% | −76% | 90
113529 (antisense CTCTTACTGTGCTGTGGACA; all phosphorothioate, sugars by position and methylation of C not given here; 2'-MOE wings and deoxy gap) [compound 113529] | +1% | −1% | −11% | −26% | +1% | +12% | −11% | −24% | 
116847 (antisense CTGCTAGCCTCTGGATTTGA; all phosphorothioate, sugars by position and methylation of C not given here; 2'-MOE wings and deoxy gap) [compound 116847] | +7% | +4% | +8% | +5% | +45% | +33% | +22% | −2% | 
337276 (antisense e[5mC]*eT*eG*eG*eA*dG*dA*dT*dT*d[5mC]*dT*d[5mC]*dT*dA*d[5mC]*e[5mC]*eA*e[5mC]*eT*eT) [compound 337276] | −40% | −61% | −76% | −81% | −34% | −58% | −75% | −81% | 91
337270 (antisense eT*eT*eG*eG*e[5mC]*dT*dT*d[5mC]*dT*d[5mC]*dA*dA*dG*dA*dT*eA*e[5mC]*e[5mC]*eT*eG) [compound 337270] | −29% | −41% | −67% | −87% | −16% | −27% | −67% | −87% | 89
337303 (antisense eA*eG*e[5mC]*eT*eG*dA*dT*dA*dA*dT*dT*d[5mC]*dA*dA*d[5mC]*eT*e[5mC]*eA*eG*eG) [compound 337303] | −44% | −61% | −69% | −72% | −47% | −59% | −69% | −71% | 85
